# Results published in patent US20230241023A1, “STABILIZATION OF 1,2,4-TRIOXANE COMPOUNDS BY CHLOROGENIC ACIDS” (Artemiflow GmbH, priority 2020, published 2023).
# Assay: Stability of artemisinin in presence of additives (heating in aqueous solution with glucose, 1H NMR quantification)
# Format: physicochemical
# Conditions: glucose 1 mol equivalent, 93° C. for 90 minutes, open to the atmosphere
# Source text: Solvents were obtained from commercial suppliers and used without further purification. Dried leaves of Artemisia annua were obtained from ArtemiLife Corp. and Artemisinin was previously prepared and purified by crystallization using the protocols detailed in Horváth, Z.; Horosanskaia, E.; Lee, J. W.; Lorenz, H.; Gilmore, K.; Seeberger, P. H.; Seidel-Morgenstern, A. Recovery of Artemisinin from a Complex Reaction Mixture Using Continuous Chromatography and Crystallization. Org. Process Res. Dev. 2015, 19, 624-634. The Artemisinin crystals obtained thereby were ground prior to use.
# Ground coffee used in extractions was preground 100% Arabica beans from Café Intención. Coffee was prepared in a Rowenta C T 3818 Milano coffee maker using size 4 coffee filters (Melitta brand). Coffee beans (100% Arabica) were preground from. 100 g of ground coffee was added to the cone coffee filter in the machine and 1350 mL of water used to make the coffee using the single setting. Coffee was then transferred to a thermos, stored at room temperature, and used without further modification.
# Two solvents were tested, tap water and premade black coffee. […] All mixtures were heated to 93° C. for 90 minutes in 10 mL glass vials open to the atmosphere. Halfway through heating, 1-2 mL of tap water was added to compensate for evaporation. […]
smiles,measurement,setting,value
C[C@@H]1CC[C@H]2[C@@H](C)C(=O)O[C@@H]3O[C@@]4(C)CC[C@@H]1[C@]32OO4 [artemisinin],clean loss of artemisinin (1H NMR),Example 1 (for comparison): 5 mL tap water,32%
same,clean loss of artemisinin (1H NMR),Example 2 (inventive): 5 mL premade black coffee (source of chlorogenic acids),19%
